# Data reported in patent US5753617A, “Peptide inhibitors of cellular adhesion” (Centocor, Inc., priority 1995, dated 1998).
# Read-outs that look alike come from different tables or passages of the source. Where a SMILES comes first, the peptide text is derived from it. Bridges are numbered along the chain shown (N, C = ends). [ ]: non-standard residue; d: D form. The star is where a group is joined. NHBu = CCCCN*
# Key:
# P-selectin = target: T1, P-selectin (Homo sapiens, UniProt P16109); assay: Inhibition of human neutrophil adhesion to purified P-selectin immobilized on plastic wells; assay type: cell-based; conditions: inhibiting the binding of human neutrophils to P-selectin
# T1 construct: P-selectin is isolated from human platelet lysates; from tissue; host or cells: human platelets (outdated platelet packs from a blood bank)
# T1 sequence (P16109 42-830): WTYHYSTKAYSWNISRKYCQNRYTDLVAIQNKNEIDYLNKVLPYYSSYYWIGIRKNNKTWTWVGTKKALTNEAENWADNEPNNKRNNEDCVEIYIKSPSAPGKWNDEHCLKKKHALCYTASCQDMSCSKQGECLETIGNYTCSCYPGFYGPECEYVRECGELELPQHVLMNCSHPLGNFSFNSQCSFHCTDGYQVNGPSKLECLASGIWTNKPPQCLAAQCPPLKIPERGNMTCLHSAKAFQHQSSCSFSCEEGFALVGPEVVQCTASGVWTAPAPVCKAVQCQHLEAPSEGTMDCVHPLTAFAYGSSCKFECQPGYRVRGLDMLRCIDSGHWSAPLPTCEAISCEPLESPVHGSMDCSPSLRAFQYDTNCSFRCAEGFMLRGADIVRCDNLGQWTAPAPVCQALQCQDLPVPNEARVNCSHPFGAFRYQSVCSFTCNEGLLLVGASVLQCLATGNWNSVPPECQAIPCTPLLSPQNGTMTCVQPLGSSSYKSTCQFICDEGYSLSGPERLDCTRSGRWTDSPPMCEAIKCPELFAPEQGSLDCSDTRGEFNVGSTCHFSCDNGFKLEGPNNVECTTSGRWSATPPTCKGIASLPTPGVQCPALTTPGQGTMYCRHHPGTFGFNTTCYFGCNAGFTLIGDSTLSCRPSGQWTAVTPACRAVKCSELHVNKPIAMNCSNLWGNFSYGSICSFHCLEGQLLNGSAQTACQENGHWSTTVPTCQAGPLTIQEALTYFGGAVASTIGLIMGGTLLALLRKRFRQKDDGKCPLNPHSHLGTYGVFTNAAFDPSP
# Summary of the method: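 Isolated human neutrophils (2×10^5 per well) in HBSS with Ca2+/Mg2+ and HSA added to wells coated overnight at 4° C with platelet-derived P-selectin (5 micrograms/mL), HSA-blocked; 20 min at 22° C. Nonadherent cells removed by inverted centrifugation at 150 g; adherent cells quantified by myeloperoxidase activity.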
# [1] = system: neutrophil influx in thioglycolate-induced peritonitis; assay: Inhibition of neutrophil influx in a rat model of thioglycolate-induced peritonitis; assay type: in vivo
# Method: CD-1 rats (175-200 g) were injected i.p. with 10 ml thioglycollate medium (BBL #21195/21196 lot#H1KBGP). At -5 minutes, 1.5 hours, and 3.5 hours post thioglycollate injection 5 rats were injected with D-arginyl-D-lysyl-cyclo(D-cysteinyl-glycyl-phenylalanyl-D-cysteinyl)-D-tryptophyl-D-threonyl-D-tryptophyl-D-valineamide (Preferred peptide (19)) (0.75 mls at -5, 0.25 mls at 1.5 and 0.25 mls at 3.5). 5 rats were injected with vehicle at the same time points (0.75 mls at -5, 0.50 mls at 1.5, and 0.25 mls at 3.5). 5 rats received thiogycollate only and served as controls. At 4 hours post thioglycollate injection all animals were sacrificed by CO2 asphyxiation. Neutrophils were harvested by flushing the peritoneal cavity with 50 mls of Hanks balanced salt solution w/o Ca and Mg (JHR Biosciences 55-02178P Lot# IL3697) containing 0.3% ultrapure EDTA (JT Baker 4040-01 lot# D42704). White cells were then counted using the Danam Vet 8 cell counter.
# [2] = disulfide bond, water
smiles,measurement,setting,value
CC(C)[C@@H](NC(=O)[C@@H](Cc1c[nH]c2ccccc12)NC(=O)[C@H](NC(=O)[C@@H](Cc1c[nH]c2ccccc12)NC(=O)[C@H]1CSSC[C@@H](NC(=O)[C@@H](CCCCN)NC(=O)[C@H](N)CCCNC(=N)N)C(=O)NCC(=O)N[C@@H](Cc2ccccc2)C(=O)N1)[C@H](C)O)C(N)=O [(19)] (H-[dR][dK][dC]GF[dC][dW][dT][dW][dV]-NH2; disulfide 3-6),IC50,P-selectin,6 µM
same,decrease in neutrophil influx in response to thioglycolate stimulation,"[1]; CD-1 rats, thioglycollate i.p., peptide injected at -5 minutes, 1.5 hours and 3.5 hours, peritoneal cells counted at 4 hours",67%
CC(C)[C@@H](NC(=O)[C@@H](Cc1c[nH]c2ccccc12)NC(=O)[C@H](NC(=O)[C@@H](Cc1c[nH]c2ccccc12)NC(=O)[C@H]1CSSC[C@@H](NC(=O)[C@@H](CCCCN)NC(=O)[C@H](N)CCCNC(=N)N)C(=O)N[C@@H](Cc2c[nH]cn2)C(=O)N[C@@H](Cc2ccccc2)C(=O)N1)[C@H](C)O)C(N)=O [(94)] (H-[dR][dK][dC]HF[dC][dW][dT][dW][dV]-NH2; disulfide 3-6),"ring closure, yield of all isomers","[2]; from CC(C)[C@@H](NC(=O)[C@@H](Cc1c[nH]c2ccccc12)NC(=O)[C@H](NC(=O)[C@@H](Cc1c[nH]c2ccccc12)NC(=O)[C@@H](CS)NC(=O)[C@H](Cc1ccccc1)NC(=O)[C@H](Cc1c[nH]cn1)NC(=O)[C@@H](CS)NC(=O)[C@@H](CCCCN)NC(=O)[C@H](N)CCCNC(=N)N)[C@H](C)O)C(N)=O, DMSO, 0.714 mM",10.7%
same,IC50,P-selectin,2.2 µM
CCCCNC(=O)[C@H](CCC(N)=O)NC(=O)[C@@H](Cc1c[nH]c2ccccc12)NC(=O)[C@H](NC(=O)[C@@H](Cc1c[nH]c2ccccc12)NC(=O)[C@H]1CSSC[C@@H](NC(=O)[C@@H](CCCCN)NC(=O)[C@H](N)CCCNC(=N)N)C(=O)NCC(=O)N[C@@H](Cc2ccccc2)C(=O)N1)[C@H](C)O [(102)] (H-[dR][dK][dC]GF[dC][dW][dT][dW]Q-NHBu; disulfide 3-6),"ring closure, yield of all isomers","[2]; from CCCCNC(=O)[C@H](CCC(N)=O)NC(=O)[C@@H](Cc1c[nH]c2ccccc12)NC(=O)[C@H](NC(=O)[C@@H](Cc1c[nH]c2ccccc12)NC(=O)[C@@H](CS)NC(=O)[C@H](Cc1ccccc1)NC(=O)CNC(=O)[C@@H](CS)NC(=O)[C@@H](CCCCN)NC(=O)[C@H](N)CCCNC(=N)N)[C@H](C)O, DMSO, 0.681 mM",21.5%
same,IC50,P-selectin,8 µM
CC(C)[C@@H](NC(=O)[C@@H](Cc1c[nH]c2ccccc12)NC(=O)[C@H](NC(=O)[C@@H](Cc1c[nH]c2ccccc12)NC(=O)[C@H]1CSSC[C@@H](NC(=O)[C@@H](CCCCN)NC(=O)[C@H](N)CCCNC(=N)N)C(=O)NCC(=O)N[C@@H](Cc2ccccc2)C(=O)N1)C(C)C)C(=O)O [(103)] (H-[dR][dK][dC]GF[dC][dW][dV][dW][dV]-OH; disulfide 3-6),"ring closure, yield of all isomers","[2]; from CC(C)[C@@H](NC(=O)[C@@H](Cc1c[nH]c2ccccc12)NC(=O)[C@H](NC(=O)[C@@H](Cc1c[nH]c2ccccc12)NC(=O)[C@@H](CS)NC(=O)[C@H](Cc1ccccc1)NC(=O)CNC(=O)[C@@H](CS)NC(=O)[C@@H](CCCCN)NC(=O)[C@H](N)CCCNC(=N)N)C(C)C)C(=O)O, air, Cu wire, ammonium acetate, 0.605 mM, 22.0 h",2.7%
same,IC50,P-selectin,42.7 µM
"CC(C)[C@@H](NC(=O)[C@@H](Cc1c[nH]c2ccccc12)NC(=O)[C@H](NC(=O)[C@@H](Cc1c[nH]c2ccccc12)NC(=O)[C@H]1CSSC[C@@H](NC(=O)[C@@H](CCCCN)NC(=O)[C@H](N)CCCNC(=N)N)C(=O)NCC(=O)N[C@@H](Cc2ccccc2)C(=O)N1)[C@H](C)O)C(N)=O [Preferred peptide (19), D-Arginyl-D-lysyl-cyclo(D-cysteinyl-glycyl-phenylalanyl-D-cysteinyl-)-D-tryptophyl-D-threonyl-D-tryptophyl-D-valine-amide] (H-[dR][dK][dC]GF[dC][dW][dT][dW][dV]-NH2; disulfide 3-6)",inhibition of neutrophil influx (result in words),"[1]; rat thioglycolate-induced peritonitis, FIG. III",inhibition of neutrophil influx
